# Test results reported in patent US20100080786A1, “Phenyl or Pyridinyl Substituted Indazoles Derivatives” (priority 2008, published 2010).
# Target: T1, Human Glucocorticoid Receptor (GR) (Homo sapiens, UniProt P04150)
# T1 construct: The full length GR was diluted to a final concentration of 3.3% (0.495 mg/ml) in assay buffer
# T1 sequence (P04150 1-777): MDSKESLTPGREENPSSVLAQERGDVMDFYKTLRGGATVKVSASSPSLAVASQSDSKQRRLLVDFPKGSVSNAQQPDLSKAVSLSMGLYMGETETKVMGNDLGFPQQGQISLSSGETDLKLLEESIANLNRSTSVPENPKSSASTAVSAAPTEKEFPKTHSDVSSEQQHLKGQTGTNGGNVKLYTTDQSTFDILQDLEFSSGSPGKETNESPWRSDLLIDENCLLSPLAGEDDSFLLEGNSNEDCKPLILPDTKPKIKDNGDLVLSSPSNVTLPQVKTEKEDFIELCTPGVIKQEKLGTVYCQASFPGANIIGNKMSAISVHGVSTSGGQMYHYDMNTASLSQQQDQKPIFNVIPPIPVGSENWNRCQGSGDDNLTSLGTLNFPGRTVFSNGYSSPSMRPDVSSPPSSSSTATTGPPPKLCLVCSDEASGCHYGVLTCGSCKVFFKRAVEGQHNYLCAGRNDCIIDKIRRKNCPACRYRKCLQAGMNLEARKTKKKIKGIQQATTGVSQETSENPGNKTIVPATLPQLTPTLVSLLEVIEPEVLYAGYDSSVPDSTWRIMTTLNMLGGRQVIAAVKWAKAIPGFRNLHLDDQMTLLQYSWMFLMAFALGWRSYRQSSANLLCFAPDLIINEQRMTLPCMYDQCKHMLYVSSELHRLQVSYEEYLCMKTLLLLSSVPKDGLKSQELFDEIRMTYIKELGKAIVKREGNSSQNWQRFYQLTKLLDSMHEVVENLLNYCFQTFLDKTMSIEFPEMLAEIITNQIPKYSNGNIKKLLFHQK
# Assay: Human Glucocorticoid Receptor (GR) radioligand binding assay (3H-dexamethasone competition)
# Settings: full length GR; 7 nM 3H-dexamethasone; 2 h at room temperature
# Description: Human Glucocorticoid Receptor (GR) Assay
# The radioligand GR binding assay is based on a competition assay using ^3H-labeled Dexamethasone. Dexamethasone is known to bind in the ligand binding domain of GR and compete for binding with endogenous ligands like e.g. cortisol (Necela, 2003). In the GR radioligand binding assay, test compounds were serially diluted in semi-log steps (10 concentrations) with a final concentration of 10 μM. Test compounds (1 μL) and controls (1 μL) in 100% DMSO were added to 96 Greiner V-bottom polypropylene plates. 0% control was 6.7% DMSO (final concentration in assay) and 100% control was 6.7 μM Dexamethasone.
# The full length GR was diluted to a final concentration of 3.3% (0.495 mg/ml) in assay buffer (20 mM Tris-HCl, 1 mM EDTA, 10% (w/v) Glycerol, 20 mM Sodium molybdate, pH 7.4). 45 μL of GR was added to each well and the plates were incubated for 15 min at room temperature.
# ^3H-dexamethasone solution was diluted to a concentration of 70 nM in assay buffer (7 nM final assay concentration) and 5 μL was added to each well. The samples were mixed for 5 min using a plate shaker at 700 rpm, before incubation for 2 h at room temperature.
# 50 μL ice-cold charcoal solution (pH 7.4:2% Charcoal, 0.2% Dextran T70 in 20 mM Tris-HCl, 1 mM EDTA and 20 mM Sodium molybdate) was added to each well and the samples were mixed on plate shaker for 5 minutes.
# The plate was then centrifuged for 1.5 min at 1500 rpm, the samples (80 μL) were is transferred from each well to a filter plate (Millipore, 0.45 μm, MHVBN45) on a vacuum manifold and then collected into new plates (Greiner, 96 well white/transparent, 655095). The filter plate was washed once with 20 μl of water and then 100 μL of scintillation liquid was added to each well and mixed by incubation on plate shaker for 5 min. Radioactivity was measured in a 1450 Microbeta Trilux Reader (Wallac) counting cpm for 2 minutes per well. The data obtained from each replicate experiment were analysed using the software ActivityBase, version 5.4.3 (ID Business Solutions Ltd) and IC50 values were calculated. Ref: Necela, B M, Cidlowski, J A, Trends Pharmacol Sci, 24: 58, 2003
row,SMILES,IC50
1,"C[C@H](NC(=O)c1cccc(-n2ncc3cc(O[C@H](c4ccccc4)[C@H](C)NC(=O)C(C)(F)F)ccc32)c1)C(N)=O [Example 5, N-[(1S)-2-amino-1-methyl-2-oxoethyl]-3-[5-({(1R,2S)-2-[(2,2-difluoropropanoyl)amino]-1-phenylpropyl}oxy)-1H-indazol-1-yl]benzamide]",1.93 nM
2,"C[C@H](NC(=O)C(C)(F)F)[C@H](Oc1ccc2c(cnn2-c2cccc(C(=O)NCCO)c2)c1)c1ccccc1 [Example 3, 3-[5-({(1R,2S)-2-[(2,2-difluoropropanoyl)amino]-1-phenylpropyl}oxy)-1H-indazol-1-yl]-N-(2-hydroxyethyl)benzamide]",1.69 nM
3,"C[C@H](NC(=O)C(N)=O)[C@H](Oc1ccc2c(cnn2-c2cccc(C(=O)N3CCC[C@@H]3C(N)=O)c2)c1)c1ccccc1 [Example 2, N-[(1S,2R)-2-{[1-(3-{[(2R)-2-carbamoylpyrrolidin-1-yl]carbonyl}phenyl)-1H-indazol-5-yl]oxy}-1-methyl-2-phenylethyl]ethanediamide]",19.9 nM
4,"C[C@H](NC(=O)C(C)(F)F)[C@H](Oc1ccc2c(cnn2-c2cccc(C(=O)NCC(N)=O)c2)c1)c1ccccc1 [Example 4, N-(2-amino-2-oxoethyl)-3-[5-({(1R,2S)-2-[(2,2-difluoropropanoyl)amino]-1-phenylpropyl}oxy)-1H-indazol-1-yl]benzamide]",1.61 nM
5,"CC(=O)NCCNC(=O)c1cccc(-n2ncc3cc(O[C@H](c4ccccc4)[C@H](C)NC(=O)C(C)(F)F)ccc32)c1 [Example 6, N-[2-(acetylamino)ethyl]-3-[5-({(1R,2S)-2-[(2,2-difluoropropanoyl)amino]-1-phenylpropyl}oxy)-1H-indazol-1-yl]benzamide]",5.06 nM
6,"C[C@H](NC(=O)C(C)(F)F)[C@H](Oc1ccc2c(cnn2-c2cccc(C(=O)N3CCNC(=O)C3)c2)c1)c1ccccc1 [Example 12, 2,2-Difluoro-N-{(1S,2R)-1-methyl-2-[(1-{3-[(3-oxopiperazin-1-yl)carbonyl]phenyl}-1H-indazol-5-yl)oxy]-2-phenylethyl}propanamide]",2.54 nM
7,"C[C@H](NC(=O)C(C)(F)F)[C@H](Oc1ccc2c(cnn2-c2cccc(C(=O)NCCN3C(=O)OC(C)(C)C3=O)c2)c1)c1ccccc1 [Example 14, 3-[5-({(1R,2S)-2-[(2,2-difluoropropanoyl)amino]-1-phenylpropyl}oxy)-1H-indazol-1-yl]-N-[2-(5,5-dimethyl-2,4-dioxo-1,3-oxazolidin-3-yl)ethyl]benzamide]",40.2 nM
8,"C[C@H](NC(=O)C(C)(F)F)[C@H](Oc1ccc2c(cnn2-c2cccc(C(=O)NCCN3CCCC3=O)c2)c1)c1ccccc1 [Example 13, 3-[5-({(1R,2S)-2-[(2,2-difluoropropanoyl)amino]-1-phenylpropyl}oxy)-1H-indazol-1-yl]-N-[2-(2-oxopyrrolidin-1-yl)ethyl]benzamide]",38.4 nM
9,"C[C@H](NC(=O)C(C)(F)F)[C@H](Oc1ccc2c(cnn2-c2cccc(C(=O)N3CC[C@@H](O)C3)c2)c1)c1ccccc1 [Example 9, 2,2-Difluoro-N-[(1S,2R)-2-{[1-(3-{[(3R)-3-hydroxypyrrolidin-1-yl]carbonyl}phenyl)-1H-indazol-5-yl]oxy}-1-methyl-2-phenylethyl]propanamide]",5.65 nM
10,"C[C@H](NC(=O)C(C)(F)F)[C@H](Oc1ccc2c(cnn2-c2cccc(C(=O)N3CCC[C@@H]3CO)c2)c1)c1ccccc1 [Example 8, 2,2-Difluoro-N-[(1S,2R)-2-{[1-(3-{[(2R)-2-(hydroxymethyl)pyrrolidin-1-yl]carbonyl}phenyl)-1H-indazol-5-yl]oxy}-1-methyl-2-phenylethyl]propanamide]",6.88 nM

# Continued, values first:
row,IC50,SMILES
1,4.22 nM,C[C@H](NC(=O)C(C)(F)F)[C@H](Oc1ccc2c(cnn2-c2cccc(C(=O)N(C)CC(N)=O)c2)c1)c1ccccc1 [Example 18]
2,13.6 nM,COc1ccc([C@@H](Oc2ccc3c(cnn3-c3cccc(C(=O)NC4CCCC4)c3)c2)[C@H](CO)NC(=O)C(C)(F)F)cn1 [Example 27]
3,3.55 nM,"C[C@H](NC(=O)C(C)(F)F)[C@H](Oc1ccc2c(cnn2-c2cccc(C(=O)N[C@@H](C(N)=O)c3ccccc3)c2)c1)c1ccccc1 [Example 17, N-[(1R)-2-amino-2-oxo-1-phenylethyl]-3-[5-({(1R,2S)-2-[(2,2-difluoropropanoyl)amino]-1phenylpropyl}oxy)-1H-indazol-1-yl]benzamide]"
4,4.46 nM,"COc1ccc([C@@H](Oc2ccc3c(cnn3-c3cccc(C(=O)NC4CCS(=O)(=O)C4)c3)c2)[C@H](C)NC(=O)C(C)(F)F)cn1 (stereo partly drawn) [Example 24, 3-(5-{[(1R,2S)-2-[(2,2-difluoropropanoyl)amino]-1-(6-methoxypyridin-3-yl)propyl]oxy}-1H-indazol-1-yl)-N-(1,1-dioxidotetrahydrothiophen-3-yl)benzamide]"
5,1.39 nM,"COc1ccc([C@@H](Oc2ccc3c(cnn3-c3cccc(C(=O)NCc4cccnc4)c3)c2)[C@H](C)NC(=O)C(C)(F)F)cn1 [Example 28, 3-(5-{[(1R,2S)-2-[(2,2-difluoropropanoyl)amino]-1-(6-methoxypyridin-3-yl)propyl]oxy}-1H-indazol-1-yl)-N-(pyridin-3-ylmethyl)benzamide]"
6,2.91 nM,"C[C@H](NC(=O)C1(C#N)CC1)[C@H](Oc1ccc2c(cnn2-c2cccc(C(=O)N3CCC[C@@H]3C(N)=O)c2)c1)c1ccccc1 [Example 21, 1-{[3-(5-{[(1R,2S)-2-{-[1(1-cyanocyclopropyl)carbonyl]amino}-1-phenylpropyl]oxy}-1H-indazol-1-yl)phenyl]carbonyl}-D-prolinamide]"
7,75.9 nM,"C[C@H](NC(=O)C(C)(F)F)[C@H](Oc1ccc2c(cnn2-c2cccc(C(=O)N3C[C@H](O)C[C@H]3C(N)=O)c2)c1)c1ccccc1 [Example 20, (4R)-1-({3-[5-({(1R,2S)-2-[(2,2-difluoropropanoyl)amino]-1-phenylpropyl}oxy)-1H-indazol-1-yl]phenyl}carbonyl)-4-hydroxy-L-prolinamide]"
8,1.37 nM,"COc1ccc([C@@H](Oc2ccc3c(cnn3-c3cccc(C(=O)NC4CCCC4)c3)c2)[C@H](C)NC(=O)C(C)(F)F)cn1 [Example 22, N-cyclopentyl-3-(5-{[(1R,2S)-2-[(2,2-difluoropropanoyl)amino]-1-(6-methoxypyridin-3-yl)propyl]oxy}-1H-indazol-1-yl)benzamide]"
9,42.4 nM,"C[C@H](NC(=O)C(C)(F)F)[C@H](Oc1ccc2c(cnn2-c2cccc(C(=O)NCc3n[nH]c4ccccc34)c2)c1)c1ccccc1 [Example 16, 3-[5-({(1R,2S)-2-[(2,2-difluoropropanoyl)amino]-1-phenylpropyl}oxy)-1H-indazol-1-yl]-N-(1H-indazol-3-ylmethyl)benzamide]"
10,4.13 nM,"CCC(O)CNC(=O)c1cccc(-n2ncc3cc(O[C@H](c4ccc(OC)nc4)[C@H](C)NC(=O)C(C)(F)F)ccc32)c1 (stereo partly drawn) [Example 26, 3-(5-{[(1R,2S)-2-[(2,2-difluoropropanoyl)amino]-1-(6-methoxypyridin-3-yl)propyl]oxy}-1H-indazol-1-yl)-N-(2-hydroxybutyl)benzamide]"
11,0.86 nM,"COc1ccc([C@@H](Oc2ccc3c(cnn3-c3cccc(C(=O)Nc4cccnc4)c3)c2)[C@H](C)NC(=O)C(C)(F)F)cn1 [Example 23, 3-(5-{[(1R,2S)-2-[(2,2-difluoropropanoyl)amino]-1-(6-methoxypyridin-3-yl)propyl]oxy}-1H-indazol-1-yl)-N-(pyridin-3-yl)benzamide]"
